In publication PMC3388080 (PLoS ONE, 2012):
Marks after values point to notes of the source that are not given here.

Test system: male Sprague-Dawley rats
Test: EEG/EMG/Tcore/LMA telemetry sleep study 1 (SB-334867 vs ZOL)
Type: in vivo, rat
Protocol: All rodent electroencephalograph (EEG) studies were performed at SRI International. Three groups of eight male Sprague-Dawley rats (300±25 g; Charles River, Wilmington, MA) were implanted with chronic recording devices (F40-EET, Data Sciences Inc., St Paul, MN) for continuous recordings of EEG, electromyograph (EMG), core body temperature (Tcore), and LMA via telemetry as previously described. Data recording and scoring were performed as previously reported (see also Supplemental Material and Methods). The EEG and EMG data were scored in 10 sec epochs for waking (W), rapid eye movement sleep (REM), and non-REM sleep (NR). Tcore and LMA (counts per minute) were analyzed as hourly means. Data from the EEG studies are reported in hourly means such that the hourly time ZT1 refers to the hour between time points ZT0 and ZT1.
For each of the three separate studies, a repeated measures counter-balanced design was employed in which each rat received five separate dosings. […] All dosings were administered ip in a volume of 2 ml/kg. A minimum of 3 d elapsed between doses. Dosing occurred during the middle of the rats’ normal active period at the start of ZT19 and was typically completed within 10 min. Animals were continuously recorded for 6 h prior to dosing and for 18 h following dosing.

Cc1nc2ccc(NC(=O)Nc3ccnc4cccnc34)cc2o1.Cl [SB-334867, 1-(2-methylbenzoxazol-6-yl)-3-[1], [5]naphthyridin-4-yl-urea hydrochloride]
cumulative NR (in words) (3 and 30 mg/kg ip, first 4 and 6 h periods): increased cumulative NR | NR bout duration (6 h Average, 3 mg/kg ip): 1.17 ± 0.12 ^+ | REM bout duration (6 h Average, 3 mg/kg ip): 1.28 ± 0.14^+ | W bout duration (6 h Average, 3 mg/kg ip): 4.29 ± 0.34 | NR bout duration (6 h Average, 10 mg/kg ip): 1.00 ±0.12 ^+ | REM bout duration (6 h Average, 10 mg/kg ip): 1.24 ±0.14^+ | W bout duration (6 h Average, 10 mg/kg ip): 4.19 ±0.30 | NR bout duration (6 h Average, 30 mg/kg ip): 1.18 ± 0.12 ^+ | REM bout duration (6 h Average, 30 mg/kg ip): 1.05 ± 0.08^+ | W bout duration (6 h Average, 30 mg/kg ip): 3.87 ± 0.21 | Number of NR bouts (6 h Total, 3 mg/kg ip): 72.88 ± 5.37 | Number of REM bouts (6 h Total, 3 mg/kg ip): 15.25 ±2.54 | Number of W bouts (6 h Total, 3 mg/kg ip): 61.5 ±5.45 | Number of NR bouts (6 h Total, 10 mg/kg ip): 76.13 ± 4.99 | Number of REM bouts (6 h Total, 10 mg/kg ip): 14.38 ± 1.55 | Number of W bouts (6 h Total, 10 mg/kg ip): 64.13 ± 3.89 | Number of NR bouts (6 h Total, 30 mg/kg ip): 71.38 ± 2.20 | Number of REM bouts (6 h Total, 30 mg/kg ip): 19.25 ± 1.50*^+ | Number of W bouts (6 h Total, 30 mg/kg ip): 65.38 ± 3.54 | NR during the subsequent light period (in words) (ZT3, 10 and 30 mg/kg ip, vs vehicle): NR decreased | NR bout duration (ZT19, 3 mg/kg ip): 1.02 ± 0.14^+ | Number of NR bouts (ZT19, 3 mg/kg ip): 4.63 ± 2.07 | Number of REM bouts (ZT19, 3 mg/kg ip): 0.50 ± 0.33 | Number of W bouts (ZT19, 3 mg/kg ip): 2.88 ± 0.93 | REM bout duration (ZT19, 3 mg/kg ip): 1.21 ± 0.38^+ | W bout duration (ZT19, 3 mg/kg ip): 31.21 ± 8.79 | NR bout duration (ZT19, 10 mg/kg ip): 1.56 ± 0.59 | Number of NR bouts (ZT19, 10 mg/kg ip): 7.88 ± 2.52 | Number of REM bouts (ZT19, 10 mg/kg ip): 1.00 ± .050 | Number of W bouts (ZT19, 10 mg/kg ip): 6.25 ± 1.78 | REM bout duration (ZT19, 10 mg/kg ip): 0.95 ± 0.09 | W bout duration (ZT19, 10 mg/kg ip): 16.83 ± 6.40 | NR bout duration (ZT19, 30 mg/kg ip): 1.29 ± 0.24 | Number of NR bouts (ZT19, 30 mg/kg ip): 7.75 ± 1.93 | Number of REM bouts (ZT19, 30 mg/kg ip): 1.50 ± 0.46 | Number of W bouts (ZT19, 30 mg/kg ip): 5.75 ± 1.10 | REM bout duration (ZT19, 30 mg/kg ip): 1.04 ± 0.27 | W bout duration (ZT19, 30 mg/kg ip): 13.73 ± 6.71 | NR bout duration (ZT20, 3 mg/kg ip): 1.29 ± 0.15^+ | Number of NR bouts (ZT20, 3 mg/kg ip): 16.25 ± 2.43 | Number of REM bouts (ZT20, 3 mg/kg ip): 4.38 ± 1.21 | Number of W bouts (ZT20, 3 mg/kg ip): 12.25 ± 2.06 | REM bout duration (ZT20, 3 mg/kg ip): 1.34 ± 0.16^+ | W bout duration (ZT20, 3 mg/kg ip): 3.39 ± 0.78 | NR bout duration (ZT20, 10 mg/kg ip): 1.14 ± 0.12^+ | Number of NR bouts (ZT20, 10 mg/kg ip): 17.50 ± 3.34 | Number of REM bouts (ZT20, 10 mg/kg ip): 4.38 ± 1.19 | Number of W bouts (ZT20, 10 mg/kg ip): 13.88 ± 2.94 | REM bout duration (ZT20, 10 mg/kg ip): 1.16 ± 0.14^+ | W bout duration (ZT20, 10 mg/kg ip): 9.58 ± 7.23 | NR bout duration (ZT20, 30 mg/kg ip): 1.41 ± 0.26^+ | Number of NR bouts (ZT20, 30 mg/kg ip): 13.75 ± 1.79 | Number of REM bouts (ZT20, 30 mg/kg ip): 3.88 ± 0.99 | Number of W bouts (ZT20, 30 mg/kg ip): 12.63 ± 1.53 | REM bout duration (ZT20, 30 mg/kg ip): 1.27 ± 0.14^+ | W bout duration (ZT20, 30 mg/kg ip): 3.30 ± 0.88 | NR bout duration (ZT21, 3 mg/kg ip): 1.45 ± 0.28 | Number of NR bouts (ZT21, 3 mg/kg ip): 20.75 ± 2.40 | Number of REM bouts (ZT21, 3 mg/kg ip): 5.63 ± 0.65 | Number of W bouts (ZT21, 3 mg/kg ip): 16.38 ± 1.96 | REM bout duration (ZT21, 3 mg/kg ip): 1.28 ± 0.18 | W bout duration (ZT21, 3 mg/kg ip): 1.44 ± 0.20 | NR bout duration (ZT21, 10 mg/kg ip): 1.13 ± 0.25 | Number of NR bouts (ZT21, 10 mg/kg ip): 18.13 ± 2.03 | Number of REM bouts (ZT21, 10 mg/kg ip): 3.75 ± 0.82 | Number of W bouts (ZT21, 10 mg/kg ip): 14.88 ± 1.83 | REM bout duration (ZT21, 10 mg/kg ip): 1.38 ± 0.21 | W bout duration (ZT21, 10 mg/kg ip): 2.72 ± 0.50 | NR bout duration (ZT21, 30 mg/kg ip): 1.27 ± 0.16 | Number of NR bouts (ZT21, 30 mg/kg ip): 16.75 ± 2.30 | Number of REM bouts (ZT21, 30 mg/kg ip): 5.63 ± 1.10 | Number of W bouts (ZT21, 30 mg/kg ip): 13.00 ± 1.90 | REM bout duration (ZT21, 30 mg/kg ip): 1.04 ± 0.11 | W bout duration (ZT21, 30 mg/kg ip): 2.98 ± 0.68 | NR bout duration (in words) (ZT21 at 30 mg/kg and ZT24 at 3 mg/kg): increased NR bout duration | NR bout duration (ZT22, 3 mg/kg ip): 0.82 ± 0.13 | Number of NR bouts (ZT22, 3 mg/kg ip): 12.75 ± 2.22 | Number of REM bouts (ZT22, 3 mg/kg ip): 2.75 ± 1.10 | Number of W bouts (ZT22, 3 mg/kg ip): 13.38 ± 2.85 | REM bout duration (ZT22, 3 mg/kg ip): 1.10 ± 0.27 | W bout duration (ZT22, 3 mg/kg ip): 6.85 ± 3.36 | NR bout duration (ZT22, 10 mg/kg ip): 0.86 ± 0.10 | Number of NR bouts (ZT22, 10 mg/kg ip): 17.13 ± 2.47 | Number of REM bouts (ZT22, 10 mg/kg ip): 3.13 ± 0.67 | Number of W bouts (ZT22, 10 mg/kg ip): 14.13 ± 1.81 | REM bout duration (ZT22, 10 mg/kg ip): 1.16 ± 0.25 | W bout duration (ZT22, 10 mg/kg ip): 3.15 ± 0.53 | NR bout duration (ZT22, 30 mg/kg ip): 1.19 ± 0.23 | Number of NR bouts (ZT22, 30 mg/kg ip): 13.13 ± 2.17 | Number of REM bouts (ZT22, 30 mg/kg ip): 3.38 ± 1.03 | Number of W bouts (ZT22, 30 mg/kg ip): 16.00 ± 2.00 | REM bout duration (ZT22, 30 mg/kg ip): 1.25 ± 0.22 | W bout duration (ZT22, 30 mg/kg ip): 2.75 ± 0.54 | NR bout duration (ZT23, 3 mg/kg ip): 0.77 ± 0.08 | Number of NR bouts (ZT23, 3 mg/kg ip): 10.50 ± 2.01 | Number of REM bouts (ZT23, 3 mg/kg ip): 1.00 ± 0.42 | Number of W bouts (ZT23, 3 mg/kg ip): 9.00 ± 1.66 | REM bout duration (ZT23, 3 mg/kg ip): 0.63 ± 0.29 | W bout duration (ZT23, 3 mg/kg ip): 6.72 ± 1.58 | NR bout duration (ZT23, 10 mg/kg ip): 0.77 ± 0.13 | Number of NR bouts (ZT23, 10 mg/kg ip): 9.88 ± 1.88 | Number of REM bouts (ZT23, 10 mg/kg ip): 1.50 ± 0.63 | Number of W bouts (ZT23, 10 mg/kg ip): 8.88 ± 1.59 | REM bout duration (ZT23, 10 mg/kg ip): 1.12 ± 0.34 | W bout duration (ZT23, 10 mg/kg ip): 11.56 ± 6.94 | NR bout duration (ZT23, 30 mg/kg ip): 0.80 ± 0.14 | Number of NR bouts (ZT23, 30 mg/kg ip): 8.88 ± 2.17 | Number of REM bouts (ZT23, 30 mg/kg ip): 2.75 ± 1.08 | Number of W bouts (ZT23, 30 mg/kg ip): 8.38 ± 2.00 | REM bout duration (ZT23, 30 mg/kg ip): 0.75 ± 0.17 | W bout duration (ZT23, 30 mg/kg ip): 12.52 ± 6.85 | NR bout duration (ZT24, 3 mg/kg ip): 1.40 ± 0.24 | Number of NR bouts (ZT24, 3 mg/kg ip): 7.63 ± 2.02 | Number of REM bouts (ZT24, 3 mg/kg ip): 1.00 ± 0.42 | Number of W bouts (ZT24, 3 mg/kg ip): 7.00 ± 1.60 | REM bout duration (ZT24, 3 mg/kg ip): 1.13 ± 0.39 | W bout duration (ZT24, 3 mg/kg ip): 14.70 ± 7.18 | NR bout duration (ZT24, 10 mg/kg ip): 0.99 ± 0.18 | Number of NR bouts (ZT24, 10 mg/kg ip): 5.38 ± 1.45 | Number of REM bouts (ZT24, 10 mg/kg ip): 0.63 ± 0.26 | Number of W bouts (ZT24, 10 mg/kg ip): 5.25 ± 1.22 | REM bout duration (ZT24, 10 mg/kg ip): 0.48 ± 0.16^+ | W bout duration (ZT24, 10 mg/kg ip): 16.01 ± 6.44 | NR bout duration (ZT24, 30 mg/kg ip): 1.05 ± 0.12 | Number of NR bouts (ZT24, 30 mg/kg ip): 10.88 ± 1.90 | Number of REM bouts (ZT24, 30 mg/kg ip): 2.13 ± 0.55 | Number of W bouts (ZT24, 30 mg/kg ip): 8.63 ±1.29 | REM bout duration (ZT24, 30 mg/kg ip): 0.81 ± 0.12 | W bout duration (ZT24, 30 mg/kg ip): 5.39 ± 6.44 | Tcore (in words) (high concentration tested, across 6 h): decreased Tcore
